# Results published in US9790231B2 (LUPIN LIMITED, priority 2013, dated 2017).
# System: IL-2 secretion by Jurkat T cells
# Assay: Inhibition of IL-2 secretion (PHA-stimulated Jurkat T cells, ELISA)
# Format: cell-based
# Conditions: Homo sapiens, 20 to 24 hours
# Experimental: The CRAC channel modulatory activity of the compounds were thus evaluated by measuring the secretion of IL-2 by antigen stimulated T-cells in vitro. Alternatively, such activity can also be evaluated by assay methods known to one skilled in the art.
# Inhibition of IL-2 secretion: Jurkat T cells were seeded at a density of 0.5 to 1 million cells per well in RPMI medium. Test compounds from this invention were added to the cells at different concentrations. This was followed by the addition of PHA, a T cell mitogen after 10 minutes. The cells were then incubated for 20 to 24 hours in a CO2 incubator at 37° C. After incubation with the compounds, cells were centrifuged; the supernatant was collected and processed for ELISA to quantitate the amount of IL-2 secreted. A commercial ELISA kit (R&D Systems, Inc. Minneapolis, Minn., USA) was used to estimate the IL-2 concentrations. Amount of IL-2 secreted by cells stimulated with PHA was considered as a 100% maximal signal and the decrease in amount of IL-2 secreted by cells treated with the test compounds was expressed as percent inhibition of the maximal signal. The dose response data was analyzed using 4-parametric sigmoidal dose response (variable slope) curve-fit.
row,SMILES,IC50 [nM]
1,"Cc1cc2c(cc1-c1ccc(NCc3c(F)cccc3F)cc1)OC1(CCC1)CC2=O [Example 21, 7-(4-((2,6-Difluorobenzyl)amino)phenyl)-6-methylspiro[chroman-2,1′-cyclobutan]-4-one]",25 to 50
2,"Cc1cc2c(cc1-c1ccc(NC(=O)c3c(F)cccc3F)cc1)OC1(CCC1)CC2 [Example 22, 2,6-Difluoro-N-(4-(6-methylspiro[chroman-2,1′-cyclobutan]-7-yl)phenyl)benzamide]",< 25
3,"Cc1c(-c2ccc(NC(=O)c3c(F)cccc3F)cc2)ccc2c1OC1(CCC1)CC2 [Example 23, 2,6-Difluoro-N-(4-(8-methylspiro[chroman-2,1′-cyclobutan]-7-yl)phenyl)benzamide]",50 to 100
4,"CCc1cc2c(cc1-c1ccc(NC(=O)c3c(F)cccc3F)cc1)OC1(CCC1)CC2 [Example 24, N-(4-(6-Ethylspiro[chroman-2,1′-cyclobutan]-7-yl)phenyl)-2,6-difluorobenzamide]",< 25
5,"Cc1cc2c(cc1-c1ccc(NC(=O)c3c(F)cccc3F)cn1)OC(C)(C)CC2=O [Example 27, 2,6-Difluoro-N-(6-(2,2,6-trimethyl-4-oxochroman-7-yl)pyridin-3-yl)benzamide]",25 to 50
6,"Cc1cc2c(cc1-c1ccc(NCc3c(F)cccc3F)cc1)OC(C)(C)CC2=O [Example 33, 7-(4-((2,6-Difluorobenzyl)amino)phenyl)-2,2,6-trimethylchroman-4-one]",< 25
7,"Cc1cc2c(cc1-c1ccc(NCc3c(F)cccc3F)nc1)OC(C)(C)CC2=O [Example 35, 7-(6-((2,6-Difluorobenzyl)amino)pyridin-3-yl)-2,2,6-trimethylchroman-4-one]",< 25
8,"Cc1cc2c(cc1-c1cnc(NC(=O)c3c(F)cccc3F)cn1)OC1(CCC1)CC2=O [Example 36, 2,6-Difluoro-N-(5-(6-methyl-4-oxospiro[chroman-2,1′-cyclobutan]-7-yl)pyrazin-2-yl)benzamide]",< 25
9,"Cc1cc2c(cc1-c1ccc(NCc3c(F)cccc3F)nc1)OC1(CCC1)CC2=O [Example 39, 7-(6-((2,6-Difluorobenzyl)amino)pyridin-3-yl)-6-methylspiro[chroman-2,1′-cyclobutan]-4-one]",< 25
10,"CCc1cc2c(cc1-c1cnc(NC(=O)c3c(F)cccc3F)cn1)OC1(CCC1)CC2=O [Example 41, N-(5-(6-Ethyl-4-oxospiro[chroman-2,1′-cyclobutan]-7-yl)pyrazin-2-yl)-2,6-difluorobenzamide]",50 to 100
11,"CCc1cc2c(cc1-c1ccc(C(=O)Nc3c(F)cncc3F)cc1)OC(C)(C)CC2=O [Example 42, N-(3,5-Difluoropyridin-4-yl)-4-(6-ethyl-2,2-dimethyl-4-oxochroman-7-yl)benzamide]",< 25
12,"Cc1cc2c(cc1-c1ccc(C(=O)Nc3c(F)cncc3F)cc1)OC(C)(C)CC2=O [Example 43, N-(3,5-Difluoropyridin-4-yl)-4-(2,2,6-trimethyl-4-oxochroman-7-yl)benzamide]",100 to 500
13,"COC(=O)C1(C)CC(=O)c2cc(C)c(-c3cnc(NC(=O)c4c(F)cccc4F)cn3)cc2O1 (stereo not shown) [Example 45, Methyl 7-(5-(2,6-difluorobenzamido)pyrazin-2-yl)-2,6-dimethyl-4-oxochroman-2-carboxylate]",100 to 500
14,"CCc1cc2c(cc1-c1ccc(NC(=O)c3c(F)cccc3F)cc1)OC(C)(C)CC2 [Example 48b, N-(4-(6-Ethyl-2,2-dimethylchroman-7-yl)phenyl)-2,6-difluorobenzamide]",< 25
15,"CCc1cc2c(cc1-c1ccc(C(=O)Nc3c(F)cncc3F)cc1)OC(C)(C)CC2 [Example 49, N-(3,5-Difluoropyridin-4-yl)-4-(6-ethyl-2,2-dimethylchroman-7-yl)benzamide]",< 25
16,"Cc1cc2c(cc1-c1ccc(C(=O)Nc3c(F)cncc3F)cc1)OC(C)(C)CC2 [Example 50, N-(3,5-Difluoropyridin-4-yl)-4-(2,2,6-trimethylchroman-7-yl)benzamide]",< 25
17,"Cc1cc2c(cc1-c1ccc(NC(=O)c3c(F)cccc3F)cc1)OC(C)(CO)CC2=O (stereo not shown) [Example 51, 2,6-Difluoro-N-(4-(2-(hydroxymethyl)-2,6-dimethyl-4-oxochroman-7-yl)phenyl)benzamide]",< 25
18,"Cc1cc2c(cc1-c1ccc(NC(=O)c3c(F)cccc3F)nc1)OC(C)(CO)CC2=O (stereo not shown) [Example 54, 2,6-Difluoro-N-(5-(2-(hydroxymethyl)-2,6-dimethyl-4-oxochroman-7-yl)pyridin-2-yl)benzamide]",50 to 100
19,"CCc1cc2c(cc1-c1ccc(NC(=O)c3c(F)cccc3F)cc1)OC(C)(CO)CC2=O (stereo not shown) [Example 58, N-(4-(6-Ethyl-2-(hydroxymethyl)-2-methyl-4-oxochroman-7-yl)phenyl)-2,6-difluorobenzamide]",50 to 100
20,"Cc1c(-c2ccc(NC(=O)c3c(F)cccc3F)cc2)ccc2c1OC(C)(C)CC2 [Example 59, 2,6-Difluoro-N-(4-(2,2,8-trimethylchroman-7-yl)phenyl)benzamide]",< 25

row,SMILES,IC50 [nM]
1,"Cc1cc2c(cc1-c1ccc(NC(=O)c3c(F)cccc3F)cc1)OC(C)(C)CC2N(C)C (stereo not shown) [Example 62, N-(4-(4-(Dimethylamino)-2,2,6-trimethylchroman-7-yl)phenyl)-2,6-difluorobenzamide]",50 to 100
2,"Cc1cc2c(cc1-c1ccc(C(=O)Nc3c(F)cncc3F)cc1)OC1(CCC1)CC2=O [Example 64, N-(3,5-Difluoropyridin-4-yl)-4-(6-methyl-4-oxospiro[chroman-2,1′-cyclobutan]-7-yl)benzamide]",< 25
3,"Cc1cc2c(cc1-c1ccc(C(=O)Nc3c(F)cncc3F)cc1)OC1(CCC1)CC2 [Example 66, N-(3,5-Difluoropyridin-4-yl)-4-(6-methylspiro[chroman-2,1′-cyclobutan]-7-yl)benzamide]",< 25
4,"Cc1cc2c(cc1-c1ccc(C(=O)Nc3c(Cl)cncc3Cl)cc1)OC1(CCC1)CC2 [Example 67, N-(3,5-Dichloropyridin-4-yl)-4-(6-methylspiro[chroman-2,1′-cyclobutan]-7-yl)benzamide]",25 to 50
5,"O=C(Nc1ccc(C2=CC3(CCC3)Oc3ccccc32)cc1)c1c(F)cccc1F [Example 68, 2,6-Difluoro-N-(4-(spiro[chromene-2,1′-cyclobutan]-4-yl)phenyl)benzamide]",< 25
6,"O=C(Nc1ccc(C2CC3(CCC3)Oc3ccccc32)cc1)c1c(F)cccc1F (stereo not shown) [Example 69, 2,6-Difluoro-N-(4-(spiro[chroman-2,1′-cyclobutan]-4-yl)phenyl)benzamide]",100 to 500
7,"O=C(Nc1ccc(C2=CC3(CCC3)Oc3ccccc32)cn1)c1c(F)cccc1F [Example 72, 2,6-Difluoro-N-(5-(spiro[chromene-2,1′-cyclobutan]-4-yl)pyridin-2-yl)benzamide]",25 to 50
8,"Cc1ccc2c(c1)C(c1ccc(NC(=O)c3c(F)cccc3F)cc1)=CC1(CCC1)O2 [Example 75, 2,6-Difluoro-N-(4-(6-methylspiro[chromene-2,l′-cyclobutan]-4-yl)phenyl)benzamide]",< 25
9,"Cc1ccc2c(c1)C(c1cnc(NC(=O)c3c(F)cccc3F)cn1)=CC1(CCC1)O2 [Example 76, 2,6-Difluoro-N-(5-(6-methylspiro[chromene-2,1′-cyclobutan]-4-yl)pyrazin-2-yl)benzamide]",50 to 100
10,"Cc1ccc2c(c1)OC1(C=C2c2ccc(NC(=O)c3c(F)cccc3F)cc2)CCC1 [Example 77, 2,6-Difluoro-N-(4-(7-methylspiro[chromene-2,1′-cyclobutan]-4-yl)phenyl)benzamide]",50 to 100
11,"CC1(C)C=C(c2ccc(NC(=O)c3c(F)cccc3F)cc2)c2ccccc2O1 [Example 79, N-(4-(2,2-Dimethyl-2H-chromen-4-yl)phenyl)-2,6-difluorobenzamide]",25 to 50
12,"CC1(C)CC(c2ccc(NC(=O)c3c(F)cccc3F)cc2)c2ccccc2O1 (stereo not shown) [Example 80, N-(4-(2,2-Dimethylchroman-4-yl)phenyl)-2,6-difluorobenzamide]",100 to 500
13,"CC1(C)C=C(c2cnc(NC(=O)c3c(F)cccc3F)cn2)c2ccccc2O1 [Example 81, N-(5-(2,2-Dimethyl-2H-chromen-4-yl)pyrazin-2-yl)-2,6-difluorobenzamide]",50 to 100
14,"Cc1ccc2c(c1)OC(C)(C)C=C2c1ccc(NC(=O)c2c(F)cccc2F)cc1 [Example 87, 2,6-Difluoro-N-(4-(2,2,7-trimethyl-2H-chromen-4-yl)phenyl)benzamide]",50 to 100
15,"Cc1cccc2c1OC(C)(C)C=C2c1cnc(NC(=O)c2c(F)cccc2F)cn1 [Example 89, 2,6-Difluoro-N-(5-(2,2,8-trimethyl-2H-chromen-4-yl)pyrazin-2-yl)benzamide]",< 25
16,COCC1(C)C=C(c2ccc(NC(=O)c3c(F)cccc3F)cc2)c2ccccc2O1 (stereo not shown) [Example 90],25 to 50
17,COCC1(C)C=C(c2ccc(NC(=O)c3c(F)cccc3F)cc2)c2cc(C)ccc2O1 (stereo not shown) [Example 91],25 to 50
18,"CC1(CO)C=C(c2ccc(NC(=O)c3c(F)cccc3F)cc2)c2ccccc2O1 (stereo not shown) [Example 93, 2,6-Difluoro-N-(4-(2-(hydroxymethyl)-2-methyl-2H-chromen-4-yl)phenyl)benzamide]",50 to 100
19,"Cc1ccc2c(c1)C(c1ccc(NC(=O)c3c(F)cccc3F)cc1)=CC(C)(CO)O2 (stereo not shown) [Example 95, 2,6-Difluoro-N-(4-(2-(hydroxymethyl)-2,6-dimethyl-2H-chromen-4-yl)phenyl)benzamide]",50 to 100
20,"Cc1cccc2c1OC(C)(C)C=C2c1ccc(NC(=O)c2c(F)cccc2F)nc1 [Example 98, 2,6-Difluoro-N(5-(2,2,8-trimethyl-2H-chromen-4-yl)pyridin-2-yl)benzamide]",25 to 50
